The record followed here is patent US11235020B2, “Methods and compositions for inhibiting glyoxalase 1 (GLO1)” (priority 2013, dated 2022).

One data set has as its target T1, GLO1 (Mus musculus, UniProt Q9CPU0).
T1 construct: from tissue; host or cells: whole brain of WT C57BL/6J mice, in vivo dosing
The experiment in a line: HPLC measurement of MG concentration in whole brain after i.p. BrBzGCp2. Format: in vivo. To be noted: BrBzGCp2 30 mg/kg i.p., two hours. As for the experimental part: MG concentration was measured by HPLC as previously described with modifications (Dhar 2009). Tissue was homogenized in 50 mM sodium phosphate buffer (pH 6.6) and 0.8N perchloric acid. It was then incubated on ice for 10 minutes and centrifuged. The supernatant was filtered, and MG was derivatized with 10 mM o-phenylenediamine to form 2-methylquinoxaline (2-MQ). 5-methylquinoxaline (5-MQ, 15 μM) was spiked into each sample as an internal standard. 2-MQ was quantified using an HP 1100 HPLC system (Agilent) with a Nova-Pak C18 column (Waters Corporation). Column effluent was monitored at 315 nm. 2-MQ concentration was determined by comparison to 2-MQ standards of known mass. Quantification of 2-MQ was corrected for losses by comparison with 5-MQ. MG concentration was calculated as 2-MQ/tissue weight.
Treatment: BrBzGCp2 was dissolved in vehicle (8% DMSO and 18% Tween-80). Mice were treated i.p. with 10 ml/kg BrBzGCp2 or vehicle.
HPLC: 2 hours post-injection, mice were sacrificed, and brains were rapidly dissected and flash-frozen on dry ice. MG concentration was measured as described above.

Data set [1] deals with depression-like behavior in mice. As to the kind of experiment: Forced swim test (FST), acute treatment. The format is in vivo, mouse. To be noted: pBBG 50 mg/kg i.p., two hours later; C57BL/6J, FVB/nJ and BALB/cJ mice. As for the experimental part:
The forced swim test (FST) is a highly reliable screen used to predict antidepressant efficacy after acute antidepressant treatments (Petit-Demouliere, Chenu & Bourin 2005). The FST relies on the phenomenon that relative to no treatment, mice receiving treatment with antidepressants will spend more time performing escape-oriented behaviors than immobile postures. […] Mice on three genetic backgrounds (C57BL/6J, FVB/nJ and BALB/cJ) were treated with 50 mg/kg pBBG (i.p.) and assessed depression-like behavior in the FST two hours later.

Data set [2] has the same test system. As to the kind of experiment: Chronic forced swim test (cFST), osmotic minipump. The format is in vivo, mouse. To be noted: 14 days. As for the experimental part: To fully assess the therapeutic potential of GLO1 inhibitors, it is necessary to utilize behavioral models sensitive to chronic administration. These models are highly informative as the therapeutic onset of antidepressant action mimics clinical onset in humans. pBBG was administered by osmotic minipumps (Alzet) for 14 days at various doses (0, 5, 10, 15, 30 and 60 mg/kg/day) to establish a dose response curve. Osmotic minipumps are ideal for chronic treatment as they release a constant volume at a very slow rate minimizing the stress of multiple injections.

The next data set has as its target purified human GLO1 (Homo sapiens, UniProt Q04760). The experiment in a line: GLO1 enzymatic activity assay with purified protein. Format: biochemical. To be noted: 100 μM BrBzGCp2, 10 ng purified GLO1. As for the experimental part: GLO1 activity was assayed by measuring the rate of formation of S-d-lactoylglutathione (Allen 1993).
Purified protein: 100 ng of purified protein was added to a hemithioacetal substrate, and enzymatic activity was measure as described above.
Enzymatic activity: Vehicle (DMSO) or 100 μM BrBzGCp2 was added to 10 ng of purified human GLO1. Enzymatic activity was measured as described above.

The subject of data set [3] is anxiety-like behavior and locomotion in mice. As to the kind of experiment: Open field (OF) test. The format is in vivo, mouse. To be noted: 14 days.
For data set [4] the test system is unchanged. As to the kind of experiment: Open field (OF) test. Format: in vivo, mouse. As for the experimental part:
OF test: Mice were placed into the center of the OF, and activity was monitored for five to ten minutes. The apparatus was illuminated to approximately 40 lux. Data were collected and processed using the manufacturer's software (AccuScan Instruments).
OF test: Ten minutes post-injection, mice were placed into the center of the OF. The apparatus was illuminated to approximately 40 lux. Behavior was measured as described above.
OF test replication studies: Ten to twenty minutes post-injection, mice were tested in the OF for five to ten minutes. In some experiments, behavior was scored as described above. In other experiments, mice were tested in the OF, and behavior was automatically scored by the Noldus Ethovision System. For mice tested in the Noldus system, the apparatus was illuminated to approximately 1,000 lux.
Chronic MG administration: For five days, mice were injected twice daily with vehicle or MG (4 mg/kg). Twelve hours after the final injection, mice were tested in the OF as described above.
Pure MG: Pure MG was obtained from Dr. John Termini at the City of Hope, Duarte, Calif. It was administered at the indicated doses by i.p. injection. Mice were tested as described above.
OF test: Two hours post-injection, mice were tested in the OF test as described above. The center size was 10×10 cm. The apparatus was illuminated to approximately 40 lux.

For data set [5], the system named is mice. As to the kind of experiment: Signs of toxicity after chronic administration. The format is in vivo. The conditions noted are these: chronic pBBG by osmotic minipump. How it is done: (A) Chronic (14 day) treatment by osmotic minipump with 5 or 10 mg/kg/day pBBG reduced immobility in the FST, establishing that chronic administration has antidepressant effects.

The subject of data set [6] is pilocarpine-induced seizures. As to the kind of experiment: Pilocarpine-induced seizures. The format is in vivo, mouse. As for the experimental part: Drug administration: All experiments with MG utilized crude MG obtained from Sigma-Aldrich. For pre-treatment, MG (50 or 200 mg/kg) or vehicle (0.9% saline) was administered by i.p. injection 10 minutes before the seizure-inducing agent. For treatment after seizure onset, MG (200 mg/kg) or vehicle (0.9% saline) was administered by i.p. injection ten minutes after seizure onset. For GLO1 inhibition, BrBzGCp2 (50 mg/kg) or vehicle (8% DMSO and 18% Tween-80) was administered by i.p. injection two hours before seizure induction.
Seizure induction: For picrotoxin-induced seizures, 5 mg/kg of picrotoxin in 0.9% saline was administered by i.p. injection. Seizures were scored for one hour after picrotoxin administration. For pilocarpine-induced seizures, mice were pre-treated with atropine (5 mg/kg in 0.9% saline) by i.p. injection in order to reduce the peripheral effects of pilocarpine. Thirty minutes after atropine administration, pilocarpine was administered by i.p. injection. B6 mice were treated with 250 mg/kg pilocarpine in 0.9% saline, and FVB mice (WT and Tg) were treated with 300 mg/kg pilocarpine in 0.9% saline. Seizures were scored for 90 minutes after pilocarpine administration.
Pilocarpine-induced seizures were scored as previously reported (Winawer 2011):
Stage 1: Immobility/Lying Low
Stage 2: Partial (limbic) seizures. Non-continuous twitching/tremor/shaking of tail/head/body/limbs, forelimb and/or tail extension, rigid posture, repetitive movements, head bobbing
Stage 3: Partial status epilepticus. Continuous tremor/clonic seizures of body and tail while retaining posture
Stage 4: Generalized seizures. Rearing/hyperexcitability/running/falling, tonic extension/clonic seizures with loss of posture
Stage 5: Generalized status epilepticus (continuous stage 4 seizures) resulting in death

Data set [7] concerns mice. As to the kind of experiment: Observation of sedation or gross deficits in treated mice. The conditions noted are these: mice treated with BrBzGCp2.
The test system of data set [8] is depression-like behavior in mice. As to the kind of experiment: Tail suspension test (TST). To be noted: pBBG pretreatment. The format is in vivo, mouse. As for the experimental part: Mice were suspended by their tails using adhesive tape attached to a bar elevated approximately 46 cm above a table. The apparatus was illuminated to approximately 1,000 lux. Mice were tested individually, and time spent immobile was scored manually for six minutes. For MG studies, mice were treated with vehicle (0.9% saline) or crude MG (Sigma-Aldrich, 50 mg/kg) by i.p. injection ten minutes before the test. Behavior was scored for five minutes.

Where [9] appears, read: BrBzGCp2 30 mg/kg i.p., B6 mice, two hours post-injection.

Chain of purified human GLO1 (Q04760 whole entry): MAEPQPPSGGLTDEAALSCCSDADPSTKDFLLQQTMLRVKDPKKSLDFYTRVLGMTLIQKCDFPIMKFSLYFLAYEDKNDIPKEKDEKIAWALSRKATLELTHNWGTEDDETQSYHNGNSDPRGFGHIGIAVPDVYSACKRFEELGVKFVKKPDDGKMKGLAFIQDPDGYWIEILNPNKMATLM
T1 sequence (Q9CPU0 2-184 limits assumed): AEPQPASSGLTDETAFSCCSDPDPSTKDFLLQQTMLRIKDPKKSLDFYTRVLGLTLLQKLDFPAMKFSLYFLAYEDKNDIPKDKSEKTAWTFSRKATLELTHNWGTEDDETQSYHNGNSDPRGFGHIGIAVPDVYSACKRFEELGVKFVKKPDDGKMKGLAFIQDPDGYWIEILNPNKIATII

Turning to `N[C@@H](CCC(=O)N[C@@H](CSCc1ccc(Br)cc1)C(=O)NCC(=O)OC1CCCC1)C(=O)OC1CCCC1` [BrBzGCp2, S-bromobenzylglutathione cyclopentyl diester], the “increase of MG concentration in the brain” value at GLO1 is given as “approximately 20%”. Also, the “immobility in the FST” value in data set [1] is listed as “reduced immobility in all strains”. Further, the “immobility in the FST compared with fluoxetine” value in [2] (pBBG 5 mg/kg/day) was “reduced immobility in the FST to a similar extent as a selective serotonin reuptake inhibitor”. Moreover, the “immobility in the FST after chronic treatment” value is on record as “reduce immobility in the FST” in data set [2] (pBBG 5 or 10 mg/kg/day) and “increased immobility in the FST” in [2] (pBBG 30, 60 mg/kg/day). Besides, the GLO1 enzymatic activity result on purified human GLO1 is given as “inhibit GLO1 enzymatic activity in vitro”. Also, the “total distance traveled in the OFT” value was “had no effect on total distance traveled in the OFT” in [3] (pBBG 5, 10, or 15 mg/kg/day) and “also had no effect on total distance traveled” in data set [3] (pBBG 15, 30 or 60 mg/kg/day). The “center time in the OF test” value in data set [4] (setting [9]) is reported as “increased center time in the OF test”. In data set [4] (setting [9]), the “distance traveled in the OF test” value is reported as “without changing distance traveled”. The “anxiogenic effect of the Glo1 duplication in the OF” value in data set [4] (BrBzGCp2 50 mg/kg i.p., CD-1 mice with Glo1 duplication) was “reversed this effect”. For the same compound, the “center time in the OF” value in data set [4] (BrBzGCp2 50 mg/kg i.p., CD-1 mice, two hours post-injection) is recorded as “increased center time in the OF”. Moreover, in the data set with mice [5], the “signs of toxicity following chronic administration” value is on record as “none were observed”. In data set [6] (BrBzGCp2 50 mg/kg i.p. two hours before pilocarpine), the seizure stage entry was “did not affect seizure stage”. Further, in data set [6] (BrBzGCp2 50 mg/kg i.p. two hours before pilocarpine 250 mg/kg), the “seizure duration (time in stage 3)” value is recorded as “reduced seizure durations”. In addition, in [6] (BrBzGCp2 50 mg/kg i.p. two hours before pilocarpine, data not shown), the seizure latency entry is recorded as “did not significantly affect seizure latency”. For the same compound, the “sedation or gross deficits” value in the data set on mice [7] is given as “did not display sedation or gross deficits”. Moreover, the “immobility on the TST” value in [8] (C57BL/6J (B6) mice) and in [8] (FVB/NJ mice) was “decreased immobility on the TST” throughout.
